This note sets out measurements from paper PMC11472313, “Development of Fragment-Based Inhibitors of the Bacterial Deacetylase LpxC with Low Nanomolar Activity” (Journal of Medicinal Chemistry, 2024).

“And” between values parts separate entries of the source, which are not always exact repeats. Equal entries are not always repeated. Some results are limits rather than exact numbers.

The term Ki denotes a measure of affinity in units of concentration, obtained from inhibition or displacement.

The target of experiment [1] is T1, P. aeruginosa LpxC (Pseudomonas aeruginosa, UniProt P47205).
T1 construct: made in house; host or cells: E. coli BL21(DE3)
T1 sequence (P47205 whole entry): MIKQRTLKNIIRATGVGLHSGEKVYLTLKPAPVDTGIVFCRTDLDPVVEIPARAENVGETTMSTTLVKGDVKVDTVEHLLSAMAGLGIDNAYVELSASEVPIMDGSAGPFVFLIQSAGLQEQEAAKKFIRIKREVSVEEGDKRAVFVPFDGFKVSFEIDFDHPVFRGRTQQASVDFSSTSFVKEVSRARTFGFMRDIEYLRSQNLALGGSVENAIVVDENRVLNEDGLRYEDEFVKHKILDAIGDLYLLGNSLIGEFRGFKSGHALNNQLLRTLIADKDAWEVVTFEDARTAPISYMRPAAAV
Kind of experiment: LC–MS/MS-based P. aeruginosa LpxC enzyme inhibition assay. Type of experiment: biochemical. The settings on record: from IC50 via Cheng–Prusoff. From the text: As Pseudomonas aeruginosa is one of the so-called ESKAPE pathogens,[56] being the leading cause of nosocomial infections throughout the world, and carbapenem-resistant P. aeruginosa strains were assigned the highest priority (priority 1: critical) within the “WHO priority pathogens list for R&D of new antibiotics” (WHO 2017),[57] new antibacterial agents combating these bacteria are urgently required. Thus, our newly developed LpxC inhibitors should be tested for inhibitory activity toward P. aeruginosa LpxC, which shares 57% sequence identity with E. coli LpxC.[28] Therefore, a liquid chromatography with tandem mass spectrometry (LC–MS/MS)-based P. aeruginosa LpxC assay was established. […] After incubation and subsequent termination of the enzymatic reaction, the samples were subjected to LC–MS/MS analysis. Following the chromatographic separation of substrate 1 and deacetylated product 2, the eluted compounds were ionized and subjected to fragmentation. Three multiple reaction monitoring (MRM) transitions were detected per compound [precursor ions: m/z (substrate 1) 832; m/z (deacetylated product 2) 790; product ions: m/z (product 1) 385, collision energy = −60 V; m/z (product 2) 159, collision energy = −80 V; m/z (product 3) 79, collision energy = −140 V]. The MRM transitions 832 → 79 of substrate 1 and 790 → 79 of product 2 were used as quantifiers; the other mass transitions were used as qualifiers.
The protocol of the LC–MS/MS-based P. aeruginosa LpxC assay was based on the E. coli LpxC C63A enzyme assay. Compared to the fluorescence-based enzyme assay, the substrate was diluted 1:10 and the inhibitors were diluted 1:4.
The wells in a black, nonbinding, 96-well fluorescence microplate (Greiner Bio One, Frickenhausen) were filled with 93 μL of 2.69 μM UDP-3-O-[(R)-3-hydroxymyristoyl]-N-acetylglucosamine in assay buffer [50 mM KH2PO4/K2HPO4 (pH = 7.5), 80 μM dithiothreitol, 0.02% Brij 35]. In order to assay the inhibitors at final concentrations from 5 nM up to 5 μM, 2 μL of a respective dilution of the compounds in DMSO were added. The addition of 5 μL of a solution of purified P. aeruginosa LpxC (5 μg mL^–1) in assay buffer led to final concentrations of 2.5 μM UDP-3-O-[(R)-3-hydroxymyristoyl]-N-acetylglucosamine, 7.5 nM P. aeruginosa LpxC, 2% DMSO, and from 5 nM up to 5 μM inhibitor. The microplate was incubated for 30 min at 37 °C in a plate shaker. Then, the biochemical reaction was stopped by adding 40 μL of 0.625 M hydrochloric acid. The reaction mixtures were further incubated for 10 min, sealed, and stored at −80 °C until analysis.
LC–MS/MS-Analysis. The reaction mixtures were separated by ultrahigh performance liquid-chromatography (1290 II Infinity UHPLC, Agilent Technologies), and the eluted compounds were analyzed by mass spectrometry using electrospray ionization in negative ion mode with a triple quadrupole linear ion trap mass spectrometer (QTRAP 5500, AB Sciex LLC).
To analyze the eluted compounds by mass spectrometry, a MRM method was applied. The specific parameters of this method are given in Table S2 (Supporting Information). After detection and selection of the precursor ions (1: m/z 832; 2: m/z 790), both analytes were fragmented, leading to three identical product ions [m/z (product 1) 385, collision energy = −60 V; m/z (product 2) 159, collision energy = −80 V; m/z (product 3) 79, collision energy = −140 V]. The mass transitions 832 → 79 (substrate 1) and 790 → 79 (product 2) were used as quantifiers; the other mass transitions were used as qualifiers. The ratio between substrate 1 and product 2 was quantified by comparing the peak areas of the quantifiers. The percentual inhibition caused by each inhibitor concentration was determined with respect to the amount of the product formed in the noninhibited reaction after 30 min.
Each assay was performed at least two times on separate days. […]

The subject of experiment [2] is K. pneumoniae ATCC 700603. Kind of experiment: disc diffusion assay. Type of experiment: cell-based, Klebsiella pneumoniae. The settings on record: 0.15 μmol per 6 mm disc. The procedure:
In the performed disc diffusion assays, indole derivatives (S)-13h, (S)-13i, and (S)-13j caused promising halos of growth inhibition.
The disc diffusion assays against E. coli TOP10 (Thermo Fisher, Waltham, USA), E. coli ATCC 35218, K. pneumoniae ATCC 700603, and P. aeruginosa ATCC 27853 were performed as follows: the bacteria were grown overnight on a Columbia blood agar plate (Oxoid, Basingstoke, UK), and one colony was suspended in sterile saline to yield a suspension of 0.5 McFarland standard. Using a sterile swab, the suspension was spread evenly onto Mueller–Hinton agar (Oxoid, Basingstoke, UK). 0.15 μmol of each compound (dissolved in 10 μL DMSO) was applied onto circular 6 mm diameter filter paper disks, which were then placed on the agar. After incubating the agar plates for 20 h at 37 °C, the diameter of the zone of growth inhibition was measured for each compound.
(A growth-free zone around the sample is the usual read-out of agar diffusion tests.)

For the molecule `O=C(NO)[C@H](COCc1ccccc1)OCc1ccc(C#Cc2ccc(CN3CCOCC3)cc2)cc1` [(S)-11a, (S)-3-(Benzyloxy)-N-hydroxy-2-[(4-{[4-(morpholinomethyl)phenyl]ethynyl}benzyl)oxy]propanamide], the Ki in experiment [1] stood at 725 ± 335 nM. On the same count and under the same terms, the value for `O=C(NO)[C@H](CNCc1ccccc1)OCc1ccc(C#Cc2ccc(CN3CCOCC3)cc2)cc1` [(S)-12a, (S)-3-(Benzylamino)-N-hydroxy-2-[(4-{[4-(morpholinomethyl)phenyl]ethynyl}benzyl)oxy]propanamide] was 862 ± 70 nM. With `O=C(NC[C@H](OCc1ccc(C#Cc2ccc(CN3CCOCC3)cc2)cc1)C(=O)NO)c1ccccc1` [(S)-13a, (S)-N-{3-(Hydroxyamino)-2-[(4-{[4-(morpholinomethyl)phenyl]ethynyl}benzyl)oxy]-3-oxopropyl}benzamide], affinity in experiment [1] was put at a Ki of 58.2 ± 0.1 nM. For the same molecule, the “Inhibition zone K. pneumoniae ATCC 700603” value in experiment [2] is reported as 7.0 ± 1.0 mm. The matching figures for `O=C(NC[C@H](OCc1ccc(C#Cc2ccc(CN3CCOCC3)cc2)cc1)C(=O)NO)c1cccc(-c2ccccc2)c1` [(S)-13c]: 149 ± 14 nM and less than 6 mm. On to `O=C(NC[C@H](OCc1ccc(C#Cc2ccc(CN3CCOCC3)cc2)cc1)C(=O)NO)c1ccc(Oc2ccccc2)cc1` [(S)-13d], for which, in experiment [1], the Ki worked out at 196 ± 18 nM. Further, in experiment [2], the “Inhibition zone K. pneumoniae ATCC 700603” value is listed as less than 6 mm.

`O=C(NC[C@H](OCc1ccc(C#Cc2ccc(CN3CCOCC3)cc2)cc1)C(=O)NO)c1ccc2ccccc2n1` [(S)-13e] yielded a Ki in experiment [1] of 168 ± 8 nM. Also, in experiment [2], the “Inhibition zone K. pneumoniae ATCC 700603” value is less than 6 mm. In the same order, the values of `O=C(NC[C@H](OCc1ccc(C#Cc2ccc(CN3CCOCC3)cc2)cc1)C(=O)NO)c1cnc2ccccc2c1` [(S)-13f] are 91.1 ± 17.5 nM and less than 6 mm. In the same order, the values of `O=C(NC[C@H](OCc1ccc(C#Cc2ccc(CN3CCOCC3)cc2)cc1)C(=O)NO)c1cc2ccccc2[nH]1` [(S)-13g] are 46 ± 16.4 nM and less than 6 mm. In the same order, the values of `O=C(NC[C@H](OCc1ccc(C#Cc2ccc(CN3CCOCC3)cc2)cc1)C(=O)NO)c1c[nH]c2ccccc12` [(S)-13h] are 5.91 ± 1.47 nM and 6.7 ± 1.2 mm. `O=C(NC[C@H](OCc1ccc(C#Cc2ccc(CN3CCOCC3)cc2)cc1)C(=O)NO)c1cccc2[nH]ccc12` [(S)-13i] registered a Ki in experiment [1] of 10.3 ± 2 nM. For the same molecule, the “Inhibition zone K. pneumoniae ATCC 700603” value in experiment [2] was 7.3 ± 1.2 mm. Take `O=C(NC[C@H](OCc1ccc(C#Cc2ccc(CN3CCOCC3)cc2)cc1)C(=O)NO)c1ccc2[nH]ccc2c1` [(S)-13j]: in experiment [1], the Ki is 5.6 nM and 5.58 nM. Besides, the “Inhibition zone K. pneumoniae ATCC 700603” value in experiment [2] is recorded as 8.0 ± 1.7 mm. Molecule `O=C(NC[C@H](OCc1ccc(C#Cc2ccc(CN3CCOCC3)cc2)cc1)C(=O)NO)c1ccc[nH]1` [(S)-13k] showed a Ki in experiment [1] of 29 ± 7.6 nM. Moreover, in experiment [2], the “Inhibition zone K. pneumoniae ATCC 700603” value stood at 9.5 ± 0.7 mm. Consider `O=C(NC[C@H](OCc1ccc(C#Cc2ccc(CN3CCOCC3)cc2)cc1)C(=O)NO)c1cc[nH]n1` [(S)-13l], for which affinity in experiment [1] was put at a Ki of 18 ± 2.9 nM. For the same molecule, in experiment [2], the “Inhibition zone K. pneumoniae ATCC 700603” value was 11.5 ± 0.7 mm. In the same order, the values of `O=C(NC[C@H](OCc1ccc(C#Cc2ccc(CN3CCOCC3)cc2)cc1)C(=O)NO)c1cc(-c2ccccc2)[nH]n1` [(S)-13m] are 41.9 ± 18.5 nM and less than 6 mm. `Cc1noc(C)c1C(=O)NC[C@H](OCc1ccc(C#Cc2ccc(CN3CCOCC3)cc2)cc1)C(=O)NO` [(S)-13n] had a Ki in experiment [1] of 80.4 ± 9.7 nM. In addition, in experiment [2], the “Inhibition zone K. pneumoniae ATCC 700603” value is given as 7.0 ± 1.0 mm. `O=C(NO)[C@H](CN(Cc1ccccc1)Cc1ccccc1)OCc1ccc(C#Cc2ccc(CN3CCOCC3)cc2)cc1` [(S)-37, (S)-3-(Dibenzylamino)-N-hydroxy-2-[(4-{[4-(morpholinomethyl)phenyl]ethynyl}benzyl)oxy]propanamide]: the Ki in experiment [1] was greater than 3250 nM.
